Measured values taken from ChEMBL document CHEMBL1833864, “N'-(arylsulfonyl)pyrazoline-1-carboxamidines as novel, neutral 5-hydroxytryptamine 6 receptor (5-HT₆R) antagonists with unique structural features” (J Med Chem, 2011).

What was measured:
[1] = biological target: 5-hydroxytryptamine receptor 6 (Homo sapiens, UniProt P50406); test: Displacement of [3H]-methyllysergic acid diethylamide from human 5-HT6 receptor expressed in CHO cells after 30 mins by liquid scintillation counting; format: cell-based
Sequence of 5-hydroxytryptamine receptor 6 (P50406 whole entry): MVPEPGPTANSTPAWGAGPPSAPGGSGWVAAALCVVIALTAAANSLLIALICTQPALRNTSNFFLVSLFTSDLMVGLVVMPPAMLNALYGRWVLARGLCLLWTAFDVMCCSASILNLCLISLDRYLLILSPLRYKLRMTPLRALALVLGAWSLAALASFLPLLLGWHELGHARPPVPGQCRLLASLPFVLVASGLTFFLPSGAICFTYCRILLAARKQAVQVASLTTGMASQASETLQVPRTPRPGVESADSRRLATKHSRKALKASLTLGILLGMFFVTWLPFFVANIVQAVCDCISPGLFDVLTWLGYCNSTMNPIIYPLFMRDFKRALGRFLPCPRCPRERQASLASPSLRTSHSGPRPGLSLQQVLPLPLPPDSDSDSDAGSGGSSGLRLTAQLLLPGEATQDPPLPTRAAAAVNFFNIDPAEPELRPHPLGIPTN

in vitro [2] = details: Sprague-Dawley, rat, hepatocytes
in vitro [3] = details: human, hepatocytes
[4] = Oral bioavailability in Wistar rat at 10 mg/kg; format: ADME, organism-based; details: in vivo
[5] = biological target: 5-hydroxytryptamine receptor 2B (Homo sapiens, UniProt P41595); test: Inhibition of human 5-HT2B receptor
[6] = Half life in Wistar rat plasma at 10 mg/kg, po; format: ADME, organism-based; parameters: dose 10 mg/kg, route oral
[7] = Half life in Wistar rat plasma at 1 mg/kg, iv; format: ADME, organism-based; parameters: dose 1 mg/kg, route intravenous
Cytochrome P450 2D6 = Cytochrome P450 2D6 (Homo sapiens, UniProt P10635); test: Inhibition of CYP 2D6; format: ADME
Cytochrome P450 2C19 = Cytochrome P450 2C19 (Homo sapiens, UniProt P33261); test: Inhibition of CYP 2C19; format: ADME
Cytochrome P450 3A4 = Cytochrome P450 3A4 (Homo sapiens, UniProt P08684); test: Inhibition of CYP 3A4; format: ADME
Cytochrome P450 2C9 = Cytochrome P450 2C9 (Homo sapiens, UniProt P11712); test: Inhibition of CYP 2C9; format: ADME
Sequence of Cytochrome P450 2C9 (P11712 whole entry): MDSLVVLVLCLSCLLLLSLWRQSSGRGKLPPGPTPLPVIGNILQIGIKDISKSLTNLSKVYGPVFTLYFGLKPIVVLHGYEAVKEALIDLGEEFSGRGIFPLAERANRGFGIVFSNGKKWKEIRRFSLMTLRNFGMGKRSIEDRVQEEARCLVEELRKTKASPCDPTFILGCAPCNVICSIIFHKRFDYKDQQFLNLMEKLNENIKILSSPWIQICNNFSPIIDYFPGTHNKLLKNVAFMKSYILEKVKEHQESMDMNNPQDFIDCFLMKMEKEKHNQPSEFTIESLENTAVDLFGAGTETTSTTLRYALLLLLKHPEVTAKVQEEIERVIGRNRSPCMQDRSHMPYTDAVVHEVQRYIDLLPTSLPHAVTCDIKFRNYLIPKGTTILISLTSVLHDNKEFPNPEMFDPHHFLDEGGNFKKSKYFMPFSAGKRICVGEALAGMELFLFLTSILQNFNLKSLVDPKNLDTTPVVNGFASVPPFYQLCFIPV

[8] = Tmax in Wistar rat; format: ADME, organism-based; details: in vivo
Cavia porcellus [9] = test: Cardiotoxicity in telemetered conscious freely moving Dunkin-Hartley guinea pig assessed as prolongation of electrocardiographic QTc interval at 100 mg/kg, sc administered for 120 mins; format: toxicity, organism-based; parameters: dose 100 mg/kg, route subcutaneous; details: in vivo, 2 h
[10] = Bioavailability in Wistar rat at 10 mg/kg, ip; format: ADME, organism-based; details: in vivo
[11] = Ratio of drug level in brain to plasma in Wistar rat at 10 mg/kg, po; format: ADME, organism-based; parameters: dose 10 mg/kg, route oral; details: brain and plasma
[12] = Plasma protein binding in human at 5 uM by LC/MS/MS analysis; format: ADME, cell-free; details: read-out: PPB (converted)
[13] = biological target: Voltage-gated inwardly rectifying potassium channel KCNH2 (Homo sapiens, UniProt Q12809)
Sequence of Voltage-gated inwardly rectifying potassium channel KCNH2 (Q12809 whole entry): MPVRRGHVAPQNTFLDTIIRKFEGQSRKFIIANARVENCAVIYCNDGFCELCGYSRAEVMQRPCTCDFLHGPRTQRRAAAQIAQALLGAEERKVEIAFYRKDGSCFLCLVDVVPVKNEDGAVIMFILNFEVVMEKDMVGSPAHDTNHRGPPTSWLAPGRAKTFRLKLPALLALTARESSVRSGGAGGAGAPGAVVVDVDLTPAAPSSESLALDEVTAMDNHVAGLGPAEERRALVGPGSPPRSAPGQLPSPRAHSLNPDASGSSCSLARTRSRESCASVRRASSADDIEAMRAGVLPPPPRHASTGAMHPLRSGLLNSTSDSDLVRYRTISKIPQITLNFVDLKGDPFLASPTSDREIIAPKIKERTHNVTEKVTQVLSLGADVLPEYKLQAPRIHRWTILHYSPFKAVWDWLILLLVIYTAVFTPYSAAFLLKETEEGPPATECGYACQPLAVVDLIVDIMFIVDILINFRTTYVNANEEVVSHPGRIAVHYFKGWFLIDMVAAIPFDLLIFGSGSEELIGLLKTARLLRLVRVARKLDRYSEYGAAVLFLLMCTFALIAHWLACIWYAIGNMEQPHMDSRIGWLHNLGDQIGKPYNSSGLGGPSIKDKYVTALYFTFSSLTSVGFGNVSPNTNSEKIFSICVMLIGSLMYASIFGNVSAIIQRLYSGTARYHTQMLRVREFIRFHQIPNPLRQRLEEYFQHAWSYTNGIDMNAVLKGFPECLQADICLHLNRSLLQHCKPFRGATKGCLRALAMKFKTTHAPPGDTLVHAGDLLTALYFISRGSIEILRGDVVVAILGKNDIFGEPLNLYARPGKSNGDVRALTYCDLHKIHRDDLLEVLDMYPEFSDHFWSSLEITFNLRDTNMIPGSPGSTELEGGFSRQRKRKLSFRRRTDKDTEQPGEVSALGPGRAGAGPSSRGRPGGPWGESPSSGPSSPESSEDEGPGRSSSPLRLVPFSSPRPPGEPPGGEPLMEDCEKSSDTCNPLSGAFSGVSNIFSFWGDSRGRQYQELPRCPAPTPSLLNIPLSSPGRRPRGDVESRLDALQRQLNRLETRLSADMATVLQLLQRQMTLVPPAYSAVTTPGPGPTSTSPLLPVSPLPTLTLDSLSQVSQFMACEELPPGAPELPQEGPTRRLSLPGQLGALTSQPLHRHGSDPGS

Cytochrome P450 1A2 = Cytochrome P450 1A2 (Homo sapiens, UniProt P05177); test: Inhibition of CYP 1A2; format: ADME
LLC-PK1 = details: pig
Description: Permeability across pig LLC-PK1 cell line overexpressing human MDR1 at 3 hrs by LC/MS analysis

[14] = Fraction unbound in rat brain homogenate at 1 uM after 6 hrs by […]; format: ADME, tissue-based
[15] = biological target: 5-hydroxytryptamine receptor 3A (Homo sapiens, UniProt P46098); test: Inhibition of human 5-HT3 receptor
[16] = biological target: 5-hydroxytryptamine receptor 1D (Homo sapiens, UniProt P28221); test: Inhibition of human 5-HT1D receptor
Sequence of 5-hydroxytryptamine receptor 1D (P28221 whole entry): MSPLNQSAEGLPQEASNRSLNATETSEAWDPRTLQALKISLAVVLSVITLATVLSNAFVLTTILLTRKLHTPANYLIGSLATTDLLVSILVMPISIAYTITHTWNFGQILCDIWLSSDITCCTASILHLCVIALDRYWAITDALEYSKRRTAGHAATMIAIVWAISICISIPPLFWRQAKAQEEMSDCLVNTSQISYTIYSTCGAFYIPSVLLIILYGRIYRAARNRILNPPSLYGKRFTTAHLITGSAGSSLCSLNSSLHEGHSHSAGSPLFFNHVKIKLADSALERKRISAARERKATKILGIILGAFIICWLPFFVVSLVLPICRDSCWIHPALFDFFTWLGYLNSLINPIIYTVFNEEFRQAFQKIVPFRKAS

[17] = Inhibition of human sigma receptor
[18] = Plasma protein binding in rat at 5 uM by LC/MS/MS analysis; format: ADME, cell-free; details: read-out: PPB (converted)
[19] = biological target: Muscarinic acetylcholine receptor M5 (Homo sapiens, UniProt P08912); test: Inhibition of human muscarinic M5 receptor
[20] = biological target: Muscarinic acetylcholine receptor M3 (Homo sapiens, UniProt P20309); test: Inhibition of human muscarinic M3 receptor
[21] = biological target: T1, 5-hydroxytryptamine receptor 1A (Homo sapiens, UniProt P08908); test: Inhibition of human 5-HT1A receptor
T1 sequence (P08908 whole entry): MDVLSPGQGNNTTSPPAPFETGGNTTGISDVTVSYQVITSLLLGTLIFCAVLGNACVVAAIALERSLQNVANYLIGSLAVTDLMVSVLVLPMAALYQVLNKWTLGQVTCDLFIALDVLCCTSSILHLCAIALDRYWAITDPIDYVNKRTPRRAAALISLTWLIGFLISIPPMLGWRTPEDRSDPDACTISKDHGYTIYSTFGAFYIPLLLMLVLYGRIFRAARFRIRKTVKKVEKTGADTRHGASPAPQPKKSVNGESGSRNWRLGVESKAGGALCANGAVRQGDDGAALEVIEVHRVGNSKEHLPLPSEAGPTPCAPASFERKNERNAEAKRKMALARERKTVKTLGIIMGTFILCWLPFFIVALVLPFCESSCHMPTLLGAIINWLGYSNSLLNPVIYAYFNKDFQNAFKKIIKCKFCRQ

Cavia porcellus [22] = test: Cardiotoxicity in telemetered conscious freely moving Dunkin-Hartley guinea pig assessed as prolongation of electrocardiographic QTc interval at 50 mg/kg, po measured up to 120 mins; format: toxicity, organism-based; parameters: dose 50 mg/kg, route oral; details: in vivo, 2 h
[23] = biological target: Muscarinic acetylcholine receptor M4 (Homo sapiens, UniProt P08173); test: Inhibition of human muscarinic M4 receptor
Sequence of Muscarinic acetylcholine receptor M4 (P08173 whole entry): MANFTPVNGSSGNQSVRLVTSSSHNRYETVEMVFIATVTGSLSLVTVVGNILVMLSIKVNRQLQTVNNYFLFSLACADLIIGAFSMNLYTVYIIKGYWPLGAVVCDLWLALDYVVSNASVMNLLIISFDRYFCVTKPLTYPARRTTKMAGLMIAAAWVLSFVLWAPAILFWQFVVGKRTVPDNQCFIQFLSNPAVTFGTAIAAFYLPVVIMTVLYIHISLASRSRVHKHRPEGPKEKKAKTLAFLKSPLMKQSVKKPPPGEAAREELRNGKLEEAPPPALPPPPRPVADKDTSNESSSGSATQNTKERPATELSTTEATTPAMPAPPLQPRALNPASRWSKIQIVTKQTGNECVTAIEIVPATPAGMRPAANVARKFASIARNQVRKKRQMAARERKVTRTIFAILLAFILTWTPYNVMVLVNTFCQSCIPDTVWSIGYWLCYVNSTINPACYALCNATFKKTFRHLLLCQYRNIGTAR

Cavia porcellus [24] = test: Cardiotoxicity in telemetered conscious freely moving Dunkin-Hartley guinea pig assessed as prolongation of electrocardiographic QTc interval at 10 mg/kg, po measured up to 120 mins; format: toxicity, organism-based; parameters: dose 10 mg/kg, route oral; details: in vivo, 2 h
[25] = biological target: Muscarinic acetylcholine receptor M2 (Homo sapiens, UniProt P08172); test: Inhibition of human muscarinic M2 receptor
[26] = biological target: Muscarinic acetylcholine receptor M1 (Homo sapiens, UniProt P11229); test: Inhibition of human muscarinic M1 receptor
[27] = biological target: 5-hydroxytryptamine receptor 2A (Homo sapiens, UniProt P28223); test: Inhibition of human 5-HT2A receptor
Sequence of 5-hydroxytryptamine receptor 2A (P28223 whole entry): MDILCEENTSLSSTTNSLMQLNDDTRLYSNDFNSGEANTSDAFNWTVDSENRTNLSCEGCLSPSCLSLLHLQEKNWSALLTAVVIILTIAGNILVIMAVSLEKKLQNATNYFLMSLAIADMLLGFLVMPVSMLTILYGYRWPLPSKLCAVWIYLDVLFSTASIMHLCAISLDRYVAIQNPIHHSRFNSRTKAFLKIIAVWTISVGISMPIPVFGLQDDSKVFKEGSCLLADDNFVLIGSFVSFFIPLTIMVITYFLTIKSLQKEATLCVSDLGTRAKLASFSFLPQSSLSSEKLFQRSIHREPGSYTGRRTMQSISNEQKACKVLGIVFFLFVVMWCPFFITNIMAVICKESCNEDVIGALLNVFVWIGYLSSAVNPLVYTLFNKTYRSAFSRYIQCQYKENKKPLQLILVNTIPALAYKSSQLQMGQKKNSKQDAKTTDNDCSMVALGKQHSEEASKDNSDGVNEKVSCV

[28] = biological target: 5-hydroxytryptamine receptor 2C (Homo sapiens, UniProt P28335); test: Inhibition of human 5-HT2C receptor
Sequence of 5-hydroxytryptamine receptor 2C (P28335 whole entry): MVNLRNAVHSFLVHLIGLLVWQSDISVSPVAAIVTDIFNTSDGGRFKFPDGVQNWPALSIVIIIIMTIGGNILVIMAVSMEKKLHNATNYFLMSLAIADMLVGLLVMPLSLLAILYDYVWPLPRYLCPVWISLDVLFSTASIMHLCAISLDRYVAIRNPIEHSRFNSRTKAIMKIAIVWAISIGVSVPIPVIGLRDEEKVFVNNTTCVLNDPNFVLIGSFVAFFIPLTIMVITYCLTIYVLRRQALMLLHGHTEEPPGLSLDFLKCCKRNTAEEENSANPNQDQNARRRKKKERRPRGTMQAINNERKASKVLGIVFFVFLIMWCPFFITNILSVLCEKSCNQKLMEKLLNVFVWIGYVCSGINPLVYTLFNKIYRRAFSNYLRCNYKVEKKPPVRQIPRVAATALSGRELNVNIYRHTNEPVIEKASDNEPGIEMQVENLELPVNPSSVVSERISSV

[29] = biological target: 5-hydroxytryptamine receptor 7 (Homo sapiens, UniProt P34969); test: Inhibition of human 5-HT7 receptor
Sequence of 5-hydroxytryptamine receptor 7 (P34969 whole entry): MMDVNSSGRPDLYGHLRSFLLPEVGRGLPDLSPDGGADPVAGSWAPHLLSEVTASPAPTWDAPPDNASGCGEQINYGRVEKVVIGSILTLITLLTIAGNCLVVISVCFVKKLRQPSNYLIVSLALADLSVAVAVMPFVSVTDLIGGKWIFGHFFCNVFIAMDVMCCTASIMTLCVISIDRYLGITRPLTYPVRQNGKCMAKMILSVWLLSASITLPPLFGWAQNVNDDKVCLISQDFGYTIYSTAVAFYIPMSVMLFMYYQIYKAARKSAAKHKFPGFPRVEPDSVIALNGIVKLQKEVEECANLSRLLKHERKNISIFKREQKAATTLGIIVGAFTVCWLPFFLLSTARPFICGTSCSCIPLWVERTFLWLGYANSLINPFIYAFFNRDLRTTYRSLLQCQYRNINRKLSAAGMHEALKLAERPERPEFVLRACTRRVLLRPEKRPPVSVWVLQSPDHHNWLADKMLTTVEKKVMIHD

D(2) dopamine receptor = D(2) dopamine receptor (Homo sapiens, UniProt P14416); test: Inhibition of human dopamine D2 receptor
Sequence of D(2) dopamine receptor (P14416 whole entry): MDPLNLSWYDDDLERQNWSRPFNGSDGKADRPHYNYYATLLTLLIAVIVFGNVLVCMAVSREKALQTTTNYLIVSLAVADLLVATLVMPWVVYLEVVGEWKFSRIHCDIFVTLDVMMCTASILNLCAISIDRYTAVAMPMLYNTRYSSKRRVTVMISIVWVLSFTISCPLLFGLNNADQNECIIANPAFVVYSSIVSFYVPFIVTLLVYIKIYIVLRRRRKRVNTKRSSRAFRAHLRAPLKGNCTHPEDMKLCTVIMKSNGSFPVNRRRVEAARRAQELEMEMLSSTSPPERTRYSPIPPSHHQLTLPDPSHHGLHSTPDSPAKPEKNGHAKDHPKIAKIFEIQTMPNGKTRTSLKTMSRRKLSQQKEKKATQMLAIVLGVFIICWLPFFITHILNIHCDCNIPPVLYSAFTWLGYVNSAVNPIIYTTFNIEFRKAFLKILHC

Structure (SMILES)	Ki [1] [nM]	hepatocyte CLint at 1 ug/mL (in vitro [2]) [µL/min/1e6 cells]	hepatocyte CLint at 1 ug/mL (in vitro [3]) [µL/min/1e6 cells]	further results
CCN/C(=N\S(=O)(=O)c1ccccc1Cl)N1CC(CC)C=N1 (stereo unspecified)	27.8	99	39	
CCC1C=NN(/C(=N/S(=O)(=O)c2ccccc2Cl)NCc2ccccc2)C1 (stereo unspecified)	92			
CCC1C=NN(/C(=N/S(=O)(=O)c2ccccc2Cl)Nc2ccccc2)C1 (stereo unspecified)	> 1000			
CCC1C=NN(/C(=N/S(=O)(=O)c2ccccc2Cl)NC(C)C)C1 (stereo unspecified)	> 1000			
CCN/C(=N\S(=O)(=O)c1ccccc1)N1CC(CC)C=N1 (stereo unspecified)	33.9			
CCCN/C(=N\S(=O)(=O)c1cccc(Cl)c1)N1CC(CC)C=N1 (stereo unspecified)	14.6			
CCC1C=NN(/C(=N/S(=O)(=O)c2cccc(Cl)c2)NC)C1 (stereo unspecified)	17.8			
CCC1C=NN(/C(N)=N/S(=O)(=O)c2cccc(Cl)c2)C1 (stereo unspecified)	24.2			
CCN/C(=N\S(=O)(=O)c1cccc(Cl)c1)N1CC(C)C=N1 (stereo unspecified)	8			
CCN/C(=N\S(=O)(=O)c1cccc(Cl)c1)N1CCC=N1	33.9			
CCN/C(=N\S(=O)(=O)c1cccc(Cl)c1)N1CCC(C)=N1	231			
CCC1C=NN(/C(=N/S(=O)(=O)c2cccc(Cl)c2)N(C)C)C1 (stereo unspecified)	> 1000			
CCN=C(NS(=O)(=O)c1cccc(Cl)c1)N1N=CC[C@H]1c1ccccc1		116	107	
CCN=C(NS(=O)(=O)c1cccc(Cl)c1)N1N=CC[C@@H]1c1ccccc1		107		
CCN/C(=N\S(=O)(=O)c1cccc(C(F)(F)F)c1)N1CC(CC)C=N1 (stereo unspecified)	17.9	116	27	
CCN/C(=N\S(=O)(=O)c1cccc(C)c1)N1CC(CC)C=N1 (stereo unspecified)	27.4	116	51	
CCN/C(=N\S(=O)(=O)c1cccc(OC)c1)N1CC(CC)C=N1 (stereo unspecified)	26.6	92	46	
CCN/C(=N\S(=O)(=O)c1ccc(Cl)c(Cl)c1)N1CC(CC)C=N1 (stereo unspecified)	7.9	198	92	
CCN/C(=N\S(=O)(=O)c1cc(Cl)ccc1Cl)N1CC(CC)C=N1 (stereo unspecified)	119	116		

Structure (SMILES)	Ki [1] [nM]	hepatocyte CLint at 1 ug/mL (in vitro [2]) [µL/min/1e6 cells]	hepatocyte CLint at 1 ug/mL (in vitro [3]) [µL/min/1e6 cells]	further results
CCN/C(=N\S(=O)(=O)c1c(Cl)cccc1Cl)N1CC(CC)C=N1 (stereo unspecified)	197	126		
CCN/C(=N\S(=O)(=O)c1cccc(Cl)c1F)N1CC(CC)C=N1 (stereo unspecified)	2.7	116	36	
CCN/C(=N\S(=O)(=O)c1ccc2ccccc2c1)N1CC(CC)C=N1 (stereo unspecified)	17.2	139	41	
CCNC(=N[S+]([O-])c1sc2ccc(Cl)cc2c1C)N1CC(CC)C=N1 (stereo unspecified)	8.5			
CCN/C(=N\S(=O)(=O)c1c(Cl)nc2sccn12)N1CC(CC)C=N1 (stereo unspecified)	7.9	116	20	
CCN/C(=N\S(=O)(=O)c1c(C)nn(C)c1Cl)N1CC(CC)C=N1 (stereo unspecified)		53	11	
CCN/C(=N\S(=O)(=O)c1ccc(S(C)(=O)=O)cc1)N1CC(CC)C=N1 (stereo unspecified)		20	4	
CCN/C(=N\S(=O)(=O)c1cccc(Cl)c1)N1CC(C)(C)C=N1	24.1			bioavailability [4]: 7%; Ki [5]: 7940 nM; half-life [6]: 2 h; half-life [7]: 2 h; IC50 (Cytochrome P450 2D6): > 10000 nM; IC50 (Cytochrome P450 2C19): > 10000 nM; IC50 (Cytochrome P450 3A4): > 10000 nM; IC50 (Cytochrome P450 2C9): > 10000 nM; Tmax [8]: 0.5 h; Activity (Cavia porcellus [9]): Non-toxic; bioavailability [10]: 45%; Kp [11]: 1; fraction unbound at 5 µM [12]: 0.37; IC50 [13]: > 10000 nM; IC50 (Cytochrome P450 1A2): > 10000 nM; permeability (LLC-PK1; llc-pk1, 3 h): 41%; fraction unbound at 6 h, 1 µM [14]: 0.01
CCN/C(=N\S(=O)(=O)c1cccc(Cl)c1)N1CC(CC)(CC)C=N1	49.9			
CCN/C(=N\S(=O)(=O)c1cccc(Cl)c1)N1CC2(C=N1)CCCC2	6.4			
CCN/C(=N\S(=O)(=O)c1cccc(Cl)c1)N1CC2(C=N1)CCCCC2	5.2			
CCN/C(=N\S(=O)(=O)c1cccc(Cl)c1)N1CC2(C=N1)CCNCC2		25	3	Ki [15]: 10000 nM; Ki ([16]; read-out: pKi (converted)): 10000 nM; pKi [17]: 5; fraction unbound at 5 µM [18]: 0.41; Ki [19]: 10000 nM; Ki [20]: 10000 nM; Ki ([21]; read-out: pKi (converted)): 10000 nM; Activity (Cavia porcellus [22]): Toxic; fraction unbound at 5 µM [12]: 0.34; IC50 [13]: 7940 nM; Ki [23]: 10000 nM; Activity (Cavia porcellus [24]): Non-toxic; Ki [25]: 10000 nM; permeability (LLC-PK1; llc-pk1, 3 h): 14.7%; Ki [26]: 10000 nM
CCN=C(NS(=O)(=O)c1cccc(Cl)c1)N1CC(CF)(CF)C=N1	92			
CCN/C(=N\S(=O)(=O)c1cccc(Cl)c1)N1CC(CC)C=N1 (racemic)				Ki [27]: > 1000 nM; Ki ([16]; read-out: Ki): > 1000 nM; Ki [28]: > 1000 nM; Ki ([21]; read-out: Ki): > 1000 nM; Ki [29]: > 1000 nM; Ki (D(2) dopamine receptor): > 1000 nM
CCN/C(=N\S(=O)(=O)c1cccc(Cl)c1)N1N=CCC1c1ccccc1 (racemic)		116	73	Ki [27]: > 1000 nM; Ki ([16]; read-out: Ki): > 1000 nM; Ki [28]: > 1000 nM; Ki ([21]; read-out: Ki): > 1000 nM; Ki [29]: > 1000 nM; IC50 [13]: > 10000 nM; permeability (LLC-PK1; LLC-PK1, 3 h): 38.5%; Ki (D(2) dopamine receptor): > 1000 nM
CCN/C(=N\S(=O)(=O)c1cccc(Cl)c1)N1N=CCC1c1ccncc1 (racemic)	322	87	50	
CCN/C(=N\S(=O)(=O)c1cccc(Cl)c1)N1N=CCC1c1ccco1 (racemic)	8.2	198	92	
CCN=C(NS(=O)(=O)c1cccc(Cl)c1)N1N=CCC1c1ccc(F)cc1 (racemic)	138	126	107	
